Where two headings read alike, the source gives them in different places.
What was measured:
A549 cells [1] = assay: LDH cytotoxicity assay; assay type: cell-based, human; conditions: 150, 300, 600, 1200 μM, 24 h
Description: (§1) Wild-type (WT) and TRPA1-KO A549 cells were cultured in McCoy’s 5A Media and F-12K Nutrient Mixture containing 10% fetal bovine serum, respectively. WT/TRPA1-KO A549 cells (5 × 10^4 cells/mL) were seeded in 96-well (100 μL/well) and 6-well (2 mL/well) plates and incubated at 37 °C with 5% CO2 in a humidified incubator for 24 h. WT/TRPA1-KO A549 cells were treated with AHs gradient concentrations (0, 150, 300, 600, 1200 μM) prepared in methanol (1.2 M) for 24 h. Additionally, WT/TRPA1-KO A549 cells were pre-treated with TRPA1 special inhibitor HC-030031 (100 μM) for 0.5 h and then treated with AHs gradient concentrations for 24 h.
Using the Cytotoxicity LDH Assay Kit, lysis buffer (10 μL) was added to the high control well of a 96-well plate containing WT/TRPA1-KO A549 cells, which was then incubated for 0.5 h. Working solution was prepared by adding 5 mL assay buffer to the dye mixture vial, of which 100 μL was added to each well. The plate was protected from light and incubated at room temperature for 0.5 h. Subsequently, 50 μL stop solution was added to each well and the absorbance was measured immediately at 490 nm using a microplate reader (BNR05740, Molecular Devices). The average absorbance was calculated from each sextuplicate set of wells and the background control value was subtracted from each absorbance value. The percentage cytotoxicity was determined using the following equation:cytotoxicity (%) = [(Aa − Ab1)/(Ab2 − Ab1)] × 100% where Aa is the absorbance of the experimental well (containing medium, cells, and compound); Ab2 is the absorbance of the high control well (containing medium, cells, and lysis buffer); and Ab1 is the absorbance of the low control well (containing medium and cells).

[2] = system: calcium influx in A549 cells; assay: Cellular calcium imaging (Fluo-4) in WT A549 cells; assay type: cell-based, human; conditions: for calcium influx compared with 0 μM AHs: A549 cells, 150, 300, 600, 1200 μM; for calcium influx with HC-030031 pre-treatment compared with AHs treatment alone: A549 cells, HC-030031 50 μM, AHs 150-1200 μM
Description: as §1, with “Additionally, WT/TRPA1-KO A549 cells were pre-treated with TRPA1 special inhibitor HC-030031 (100 μM) for 0.5 h and then treated with AHs gradient concentrations for 24 h.” left out
(§2) Working solution was prepared according to the instructions of the Fluo-4 Direct calcium assay kit and directly added to WT/TRPA1-KO A549 cells in 96-well plates, which were incubated for 0.5 h and kept away from light after removal from the incubator. Single channel fluorescein isothiocyanate (FITC) levels were measured using a confocal high-content imaging system (IXM-C S150069, Molecular Devices, San Jose, CA, USA).

[3] = system: calcium influx in TRPA1-KO A549 cells; assay: Cellular calcium imaging (Fluo-4) in TRPA1-KO A549 cells; assay type: cell-based, human; conditions: AHs 150-1200 μM
Description: The hTRPA1 gene sequence (Gene ID: 8989) was obtained from the National Center for Biotechnology Information (NCBI) website (https://www.ncbi.nlm.nih.gov/gene/8989 accessed on 26 May 2022). Three gRNA sequences, namely, T1: 5′-[…]-[…], T16: 5′-[…]-3′, and T20: 5′-[…]-3′, were designed using the CRISPR online design tool (http://crispr.mit.edu/ accessed on 26 May 2022). Transfection of cells with gRNA-Cas9 was validated in test cells. Cell pool examination was performed using Sanger sequencing. Sequencing and tracer analysis were performed using the online tool TIDE (https://tide-calculator.nki.nl/ accessed on 26 May 2022) to investigate the cleavage efficiency of T1, T16, and T20. Cells from the cell pool were diluted in 96-well plates. Clones were observed under a microscope and wells containing single cell clones were labeled. Single cell clones were transferred to 24-well plates for expansion. Validation of knockout (KO) clones was performed via sequencing to confirm insertion and deletion on the genomes of KO clone candidates. Furthermore, mycoplasmas were detected for cloned cells with high KO using the Mycoplasma PCR Detection Kit.
as §1, §2

A549 cells [4] = assay: CCK-8 cell viability assay in WT A549 cells; assay type: cell-based, human; conditions: for viability of A549 cells compared with 0 μM AHs: 150, 300, 600, 1200 μM, 24 h; for viability of A549 cells compared with 0 μM AHs / IC50: CCK-8; for viability with HC-030031 pre-treatment compared with AHs treatment alone: A549 cells, HC-030031 50 μM, AHs 150, 300, 600 μM
Description: as §1, with “Additionally, WT/TRPA1-KO A549 cells were pre-treated with TRPA1 special inhibitor HC-030031 (100 μM) for 0.5 h and then treated with AHs gradient concentrations for 24 h.” left out
To conduct the cell viability assay, the growth medium was removed from WT/TRPA1-KO A549 cells cultured in a 96-well plate. CCK-8 reagent was mixed with complete medium (1:9 volume ratio), and 100 µL of the CCK-8 reagent mixture was added to each well. The plate was incubated for 4 h and the absorbance was measured at 450 nm using a microplate reader (BNR05740; Molecular Devices, Sunnyvale, CA, USA). The average absorbance from each sextuplicate set of wells was calculated and the background control value was subtracted from each absorbance value. The percentage cell viability was determined using the following equation:cell viability (%) = [(As − Ab)/(Ac − Ab)] × 100% where As is the absorbance of the experimental well (containing medium, CCK-8 reagent, cells, and compound); Ac is the absorbance of the control well (containing medium, CCK-8 reagent, and cells); and Ab is the absorbance of the blank well (containing medium and CCK-8 reagent).

[5] = target: hTRPA1 ARD recombinant protein (Homo sapiens, UniProt O75762); assay: LSPR binding analysis (OpenSPR, COOH chip); conditions: for kon: read-out: association constant (ka); for koff: read-out: dissociation constant (kd)
Chain of hTRPA1 ARD recombinant protein (O75762 62-609): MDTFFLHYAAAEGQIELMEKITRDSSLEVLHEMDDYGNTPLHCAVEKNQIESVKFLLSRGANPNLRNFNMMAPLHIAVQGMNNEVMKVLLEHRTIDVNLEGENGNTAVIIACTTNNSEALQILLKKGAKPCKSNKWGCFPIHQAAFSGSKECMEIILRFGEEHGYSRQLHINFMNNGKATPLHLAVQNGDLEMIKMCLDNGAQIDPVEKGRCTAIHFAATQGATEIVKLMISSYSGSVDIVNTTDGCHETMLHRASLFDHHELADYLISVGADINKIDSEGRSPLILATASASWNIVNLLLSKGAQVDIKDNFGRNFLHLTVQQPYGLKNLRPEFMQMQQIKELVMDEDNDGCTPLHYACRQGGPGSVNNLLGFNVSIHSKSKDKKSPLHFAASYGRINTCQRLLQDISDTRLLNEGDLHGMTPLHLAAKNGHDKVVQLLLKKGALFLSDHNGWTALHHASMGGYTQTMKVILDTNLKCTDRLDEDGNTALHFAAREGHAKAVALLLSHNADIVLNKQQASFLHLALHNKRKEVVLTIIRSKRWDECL
Description: The binding capacity of hTRPA1 ARD recombinant protein and AHs was determined by LSPR according to the OpenSPR (Nicoya Life Sciences, Kitchener, ON, Canada) operating procedure using the COOH chip. After the baseline signal was obtained, the sample was washed with 200 µL 80% isopropyl alcohol for 10 s, and 200 µL ethylcarbodiimide/N-hydroxysuccinimide solution was added. The sample loop was rinsed with phosphate-buffered saline (PBS). hTRPA1 (5 µL) was diluted with PBS, incubated for 4 min, and 200 µL blocking solution was added. […] Contact and dissociation time of analytes and protein were 240 s and 160 s, respectively. TraceDrawer software was applied to determine the association constant (ka), dissociation constant (kd), and affinity constant (KD) using a 1:1 model.

[6] = Homo sapiens, WT A549 cells, 24 h treatment, read-out: IC50 values of AHs, A549 Cells
[7] = WT A549 cells pre-treated with HC-030031 50 μM, then AHs 24 h, read-out: IC50 values of AHs, A549 Cells + HC-030031 50 μM

Row | SMILES | cell damage (LDH) compared with 0 μM AHs (A549 cells [1]) | calcium influx compared with 0 μM AHs [2] | calcium influx with HC-030031 pre-treatment compared with AHs treatment alone [2] | calcium influx with KO of TRPA1 compared with AHs-treated WT cells [3] | viability of A549 cells compared with 0 μM AHs (A549 cells [4]) | viability with HC-030031 pre-treatment compared with AHs treatment alone (A549 cells [4]) | IC50 (A549 cells [4]; [6]) [µM] | IC50 (A549 cells [4]; [7]) [µM] | Kd [5] [µM] | kon [5] [M⁻¹ s⁻¹] | koff [5] [s⁻¹] | association constant (ka) ([5]; 1:1 model, TraceDrawer) [M⁻¹ s⁻¹] | dissociation constant (kd) ([5]; 1:1 model, TraceDrawer) [s⁻¹]
1 | CCC(=O)Nc1ccc(Cl)c(Cl)c1 [Propanil, propanil] | significantly increased cell damage | significantly increased | significantly decreased calcium influx | significantly decreased calcium influx | significantly decreased | significantly increased viability | 831 | 2290 | 16.2 | 2390 | 0.0388 |  | 
2 | CCCOCCN(C(=O)CCl)c1c(CC)cccc1CC [Pretilachlor, pretilachlor] | significantly increased cell damage | significantly increased | significantly decreased calcium influx | significantly decreased calcium influx | significantly decreased | significantly increased viability | 2330 | 4460 | 309 |  |  | 14.3 | 0.00443
3 | CCc1cccc(C)c1N(C(=O)CCl)C(C)COC (stereo not drawn) [Metolachlor, metolachlor] | significantly increased cell damage | significantly increased | significantly decreased calcium influx | significantly decreased calcium influx | significantly decreased | significantly increased viability | 430 | 620 | 364 | 112 | 0.0408 |  | 

Reference: PMC9266004, “Potential Common Mechanisms of Cytotoxicity Induced by Amide Herbicides via TRPA1 Channel Activation” (International Journal of Environmental Research and Public …, 2022)
